Like-named read-outs stand apart in the source and are kept apart here.
How the values were obtained:
[1] = test system: hair cells of cochlea organ of corti cultures; assay: in vitro
Method: For example, an ototoxicity test that can be used includes the steps of (1) treating organ of corti cultures with a compound of the invention and a parent aminoglycoside compound for a certain period of time (e.g., 1 hour), respectively; (2) washing and then culturing the treated tissue for some period of time (e.g., 2 days); (3) fixing and staining the tissue so that hair cell counts can be obtained; and (4) comparing the hair cell counts between the tissue treated by the compound of the invention and the tissue treated by the parent aminoglycoside compound.
Ototoxicity was also assayed using cochlea organ of corti cultures. The cultures were made at 4 days post birth (P4), cultured for 1 day and then treated for 1 hour with test compound. The tissue was then washed and cultured for an additional two days at which time the tissue is fixed and stained so that hair cell counts could be obtained. This method is similar to that used previously in characterizing aminoglycoside ototoxicity (Alharazneh et al., 2011). Fixed regions at the apex, middle, and base of the cochlea were imaged and cell counts obtained. […] Data were quantified across cochlear regions for this same compound. Quantification was by counting the number of outer hair cells present over a given distance. […] A dose response curve was created for the parent compound as well as the tested novel aminoglycoside. […] Other sisomicin derivatives were also tested for ototoxicity.

mouse [2] = conditions: in vivo
E. coli = E. coli assay of minimal inhibitory (MIC) and minimal bactericidal (MBC) concentrations; assay type: cell-based; conditions: FIGS. 1A and 1B
Method: FIGS. 1A and 1B are bar graphs showing antimicrobial activities of a variety of sisomicin derivatives (MS=methyl sulfonyl, PS=phenyl sulfonyl, BZ=benzoyl, SiRho=rhodamine; and 1N and 3″ indicate substituents' position on sisomicin). The negative values reflect an arbitrary value indicating no detectable level of activity.
Both antimicrobial activity and ototoxicity in several of the synthesized compounds were assessed. To test antimicrobial activity, an E. coli assay was used to test both minimal inhibitory concentrations (MIC) as well as minimal bactericidal concentrations (MBC). A cross section of results was presented in FIG. 1, for control and a variety of tested compounds. […] Antimicrobial activity remained stable for each compound over time.

mouse [3] = assay: LD50 after intraperitoneal injection in mouse model; assay type: in vivo; conditions: FIG. 5

With CN[C@@H]1[C@@H](O)[C@@H](O[C@@H]2[C@@H](O)[C@H](O[C@H]3OC(CN)=CC[C@H]3N)[C@@H](N)C[C@H]2NC(=O)c2ccccc2)OC[C@]1(C)O [1N benzoyl sisomicin, 1-benzoyl sisomicin] the “less toxic than sisomicin (ototoxicity)” value ([1]; 1 h) was 30%.
CN[C@@H]1[C@@H](O)[C@@H](O[C@@H]2[C@@H](O)[C@H](O[C@H]3OC(CN)=CC[C@H]3N)[C@@H](N)C[C@H]2NS(=O)(=O)c2ccccc2)OC[C@]1(C)O [1N phenyl sulfonyl sisomicin, 1-Benzenesulfonyl-sisomicin] was tested, and the “less toxic than sisomicin (ototoxicity)” value ([1]; 1 h) was “about 80%”.
With CN([C@@H]1[C@@H](O)[C@@H](O[C@@H]2[C@@H](O)[C@H](O[C@H]3OC(CN)=CC[C@H]3N)[C@@H](N)C[C@H]2NS(C)(=O)=O)OC[C@]1(C)O)S(C)(=O)=O [1N,3″N-methyl sulfonyl sisomicin, 1,3″-N-bis-methylsulfonyl sisomicin] the “ototoxicity compared in words” value ([1]; 1 h) was “about equally non-ototoxic as 1N-methyl sulfonyl sisomicin”.
CN([C@@H]1[C@@H](O)[C@@H](O[C@@H]2[C@@H](O)[C@H](O[C@H]3OC(CN)=CC[C@H]3N)[C@@H](N)C[C@H]2NS(=O)(=O)c2ccccc2)OC[C@]1(C)O)S(=O)(=O)c1ccccc1 [1N,3″N-phenyl sulfonyl sisomicin, 1,3″-dibenzenesulfonyl-sisomicin] was tested, and the “ototoxicity compared in words” value [1] was “about equally ototoxic as sisomicin”.
In the case of CN[C@@H]1[C@@H](O)[C@@H](O[C@@H]2[C@@H](O)[C@H](O[C@H]3OC(CN)=CC[C@H]3N)[C@@H](N)C[C@H]2NS(C)(=O)=O)OC[C@]1(C)O [1N-methyl sulfonyl sisomicin, 1-N-methylsulfonyl sisomicin], the Kd at 1 h [1] is reported as 1500 µM, the “fold less toxic than the parent compound” value [1] is reported as “more than ten-fold shift in sensitivity for toxicity” and the “hair cell loss at any of the cochlea regions tested” value [1] is reported as “did not cause any hair cell loss”. The “hair cells in stained tissue (FIG. 2)” value [1] was “no hair cell loss”, the “fold less toxic than the parent compound” value ([1]; 1 h) was “more than 10 ×” and the “hair cell loss in histological preparations of the cochlea” value (mouse [2]) was “no loss of hair cells”. For the same compound, the “antimicrobial activity (MIC, MBC)” value (E. coli) was “retained antimicrobial activity” and the “LD50 relative to LD50 of the parent sisomicin (fold higher)” value (mouse [3]) was 3 ×.
In the case of CN(C(=O)c1ccccc1)[C@@H]1[C@@H](O)[C@@H](O[C@@H]2[C@@H](O)[C@H](O[C@H]3OC(CN)=CC[C@H]3N)[C@@H](N)C[C@H]2N)OC[C@]1(C)O [3″N-benzoyl sisomicin, 3″-Benzoyl sisomicin], the “less toxic than sisomicin (ototoxicity)” value ([1]; 1 h) is reported as “about 60%”.
In the case of CN([C@@H]1[C@@H](O)[C@@H](O[C@@H]2[C@@H](O)[C@H](O[C@H]3OC(CN)=CC[C@H]3N)[C@@H](N)C[C@H]2N)OC[C@]1(C)O)S(C)(=O)=O [3″N-methyl sulfonyl sisomicin, 3″-methylsulfonyl sisomicin], the “ototoxicity compared in words” value ([1]; 1 h) is reported as “about equally non-ototoxic as 1N-methyl sulfonyl sisomicin”.
With CN([C@@H]1[C@@H](O)[C@@H](O[C@@H]2[C@@H](O)[C@H](O[C@H]3OC(CN)=CC[C@H]3N)[C@@H](N)C[C@H]2N)OC[C@]1(C)O)S(=O)(=O)c1ccccc1 [3″N-phenyl sulfonyl sisomicin, 3″-benzenesulfonyl-sisomicin] the “ototoxicity compared in words” value [1] was “about equally ototoxic as sisomicin”.
With CN[C@@H]1[C@@H](O)[C@@H](O[C@@H]2[C@@H](O)[C@H](O[C@H]3OC(CN)=CC[C@H]3N)[C@@H](N)C[C@H]2N)OC[C@]1(C)O [sisomicin, reference compound] the Kd at 1 h [1] was 120 µM, the “hair cells in stained tissue (FIG. 2)” value [1] was “no hair cells remained” and the “outer hair cells killed, apex of cochlea” value ([1]; 1 h) was “about 60%”. The “outer hair cells killed, base and middle of cochlea” value ([1]; 1 h) was “more than 90%” and the “hair cell loss in histological preparations of the cochlea” value (mouse [2]) was “significant hair cell loss”.
